# From US9238039B2, “Pyrazolo[1,5-A]pyrimidines for antiviral treatment” (Gilead Sciences, Inc., priority 2010, dated 2016)
# Test system: RSV strain A2
# Assay: RSV antiviral cytoprotection assay in Hep2 cells (96-well and 384-well format, Cell TiterGlo read-out)
# Assay type: cell-based, Respiratory Syncytial Virus (RSV)
# Conditions: human respiratory syncytial virus; for inhibition at 0.5 µM: HEp-2, 0.5 uM, RSV-induced cytopathic effect in Hep2 cells, calculated from fitted dose response curve, normalized to 0% and 100%; for EC50: HEp-2, RSV-induced cytopathic effects, Hep2 cells, class symbols
EC50 [nM],SMILES,inhibition at 0.5 µM [%]
0.1 to 100,Cc1cccc(C(=O)N2CCCC[C@H]2c2cc3nc(N4CC[C@H](C#N)C4)c(C)cn3n2)c1 [Compound 152],100
0.1 to 100,Cc1cn2nc([C@@H]3CCCCN3C(=O)c3cccc(N)c3)cc2nc1N1CC[C@H](C#N)C1 [Compound 153],100
0.1 to 100,Cc1cccc(C(=O)N2CCCC[C@H]2c2cc3nc(N4CC[C@H](N)C4)c(C)cn3n2)c1 [Compound 157],100
0.1 to 100,Cc1ccccc1C(=O)N1CCCC[C@H]1c1cc2nc(N3CC[C@H](N)C3)c(C)cn2n1 [Compound 158],100
0.1 to 100,Cc1cc(C)cc(C(=O)N2CCCC[C@H]2c2cc3nc(N4CC[C@H](N)C4)c(C)cn3n2)c1 [Compound 160],100
0.1 to 100,Cc1ccc(C)c(C(=O)N2CCCC[C@H]2c2cc3nc(N4CC[C@H](N)C4)c(C)cn3n2)c1 [Compound 161],100
0.1 to 100,COC1CN(c2nc3cc([C@@H]4CCCCN4C(=O)c4cc(Cl)ccc4NS(C)(=O)=O)nn3cc2C)CC1N (stereo partly drawn) [Compound 167],100
0.1 to 100,Cc1cn2nc([C@@H]3CCCCN3C(=O)c3cc(Br)ccc3NS(C)(=O)=O)cc2nc1N1CC(O)C1 [Compound 168],100
0.1 to 100,CC(=O)Nc1ccc(C)cc1C(=O)N1CCCC[C@H]1c1cc2nc(N3CC[C@H](N)C3)c(C)cn2n1 [Compound 169],100
0.1 to 100,Cc1cn2nc([C@@H]3CCCCN3C(=O)c3cc(Cl)ccc3NS(C)(=O)=O)cc2nc1N1CC(=O)C1 [Compound 170],100
0.1 to 100,Cc1cn2nc([C@@H]3CCCCN3C(=O)c3cc(Cl)ccc3NS(C)(=O)=O)cc2nc1N1CC(OC(=O)[C@@H]2CCCN2)C1 [Compound 171],100
0.1 to 100,Cc1cn2nc([C@@H]3CCCCN3C(=O)c3cc(Cl)ccc3NS(C)(=O)=O)cc2nc1N1CC(OC(=O)CN)C1 [Compound 172],100
0.1 to 100,Cc1cn2nc(C3CCCCCN3C(=O)c3cc(Cl)ccc3NS(C)(=O)=O)cc2nc1N1CC(O)C1 (stereo not drawn) [Compound 174],100
0.1 to 100,CN(C)CCN(C)c1cc(N2CCC2)nc2cc([C@@H]3CCCCN3C(=O)c3cc(Cl)ccc3NS(C)(=O)=O)nn12 [Compound 175],100
0.1 to 100,Cc1cn2nc([C@@H]3Cc4ccccc4CN3C(=O)c3cc(Cl)ccc3NS(C)(=O)=O)cc2nc1N1CC[C@H](N)C1 [Compound 176],100
0.1 to 100,CS(=O)(=O)Nc1ccc(Cl)cc1C(=O)N1CCCCCC1c1cc2nc(N3CC(N)C3)cc(N3CCOCC3)n2n1 (stereo not drawn) [Compound 178],100
0.1 to 100,Cc1cn2nc([C@@H]3CCCCN3C(=O)c3cc(Cl)ccc3NS(C)(=O)=O)cc2nc1N1CC(N)C(C#N)C1 (stereo partly drawn) [Compound 186],100

# Continued, compound first:
SMILES,EC50 [nM],inhibition at 0.5 µM [%]
C[C@H]1CC[C@@H](c2cc3nc(N4CCC4)cc(N4CCOCC4)n3n2)N(C(=O)c2cc(Cl)ccc2NS(C)(=O)=O)C1 [Compound 143],0.1 to 100,100
Cc1cn2nc([C@@H]3CCCCN3C(=O)c3cc(Cl)ccc3NS(C)(=O)=O)cc2nc1N1CC(OC(=O)CCC(=O)O)C1 [Compound 144],0.1 to 100,99
CS(=O)(=O)Nc1ccc(Cl)cc1C(=O)N1CCCC[C@H]1c1cc2nc(N3CCC3)cc(N3CCCN3)n2n1 [Compound 145],0.1 to 100,99
Cc1cn2nc([C@@H]3CCCCN3C(=O)c3cc(Cl)ccc3NS(C)(=O)=O)cc2nc1N1CCN=C1N [Compound 146],0.1 to 100,99
CS(=O)(=O)Nc1ccc(Cl)cc1C(=O)N1CCCC[C@H]1c1cc2nc(N3CCC3)cc(N3C[C@H]4C[C@@H]3CN4)n2n1 [Compound 147],0.1 to 100,98
Cc1cn2nc([C@@H]3CCCCN3C(=O)c3cc(Cl)ccc3NS(C)(=O)=O)cc2nc1N1C[C@@H]2[C@@H](N)[C@@H]2C1 [Compound 148],0.1 to 100,100
Cc1cn2nc([C@@H]3CCCCN3C(=O)c3cc(Cl)ccc3NS(C)(=O)=O)cc2nc1N[C@H](C)CO [Compound 149],0.1 to 100,98
Cc1cn2nc([C@@H]3CCCCN3C(=O)c3cc(Cl)ccc3NS(C)(=O)=O)cc2nc1N(C)CCO [Compound 150],0.1 to 100,97
Cc1cn2nc([C@@H]3CCCCN3C(=O)c3cc(Cl)ccc3NS(C)(=O)=O)cc2nc1N1CC[C@@H](CN)C1 [Compound 151],0.1 to 100,99
C[C@@H]1CN(c2cc(N3CCC3)nc3cc([C@@H]4CCCCN4C(=O)c4cc(Cl)ccc4NS(C)(=O)=O)nn23)CCN1 [Compound 154],0.1 to 100,100
C[C@H]1CN(c2cc(N3CCC3)nc3cc([C@@H]4CCCCN4C(=O)c4cc(Cl)ccc4NS(C)(=O)=O)nn23)CCN1 [Compound 155],0.1 to 100,100
CS(=O)(=O)Nc1ccc(Cl)cc1C(=O)N1CCCC[C@H]1c1cc2nc(N3CCC3)cc(N3CCCNCC3)n2n1 [Compound 156],0.1 to 100,100
CS(=O)(=O)Nc1ccc(Cl)cc1C(=O)N1CCCC[C@H]1c1cc2nc(N3CCC3)cc(N3CCNC(C(F)(F)F)C3)n2n1 (stereo partly drawn) [Compound 159],0.1 to 100,100
CS(=O)(=O)Nc1ccc(Cl)cc1C(=O)N1CCCC[C@H]1c1cc2nc(N3CCC3)cc(N3CCN[C@@H](CF)C3)n2n1 [Compound 162],0.1 to 100,100
C[C@@H]1CN(c2cc(N3CCC3)nc3cc([C@@H]4CCCCN4C(=O)c4cc(Cl)ccc4NS(C)(=O)=O)nn23)C[C@H](C)N1 [Compound 163],0.1 to 100,100
CS(=O)(=O)Nc1ccc(Cl)cc1C(=O)N1CCCC[C@H]1c1cc2nc(N3CCC3)cc(N3CC(N)C(C(=O)N4CCC4)C3)n2n1 (stereo partly drawn) [Compound 164],0.1 to 100,100
CN1CCN(c2cc(N3CCC3)nc3cc([C@@H]4CCCCN4C(=O)c4cc(Cl)ccc4NS(C)(=O)=O)nn23)CC1 [Compound 165],0.1 to 100,100
CS(=O)(=O)Nc1ccc(Cl)cc1C(=O)N1CCCC[C@H]1c1cc2nc(N3CCC3)cc(N3CCN(CCF)CC3)n2n1 [Compound 166],0.1 to 100,100
CN1CCCN(c2cc(N3CCC3)nc3cc([C@@H]4CCCCN4C(=O)c4cc(Cl)ccc4NS(C)(=O)=O)nn23)CC1 [Compound 173],0.1 to 100,100
CS(=O)(=O)Nc1ccc(Cl)cc1C(=O)N1CCCCCC1c1cc2nc(N3CCC3)cc(N3CCOCC3)n2n1 (stereo not drawn) [Compound 177],0.1 to 100,99
Cc1cn2nc([C@@H]3CCCCN3C(=O)c3cc(Cl)ccc3NS(C)(=O)=O)cc2nc1N1CC(OC(=O)[C@@H](N)C(C)C)C1 [Compound 187],0.1 to 100,100
Cc1ccc(NS(C)(=O)=O)c(C(=O)N2CCCC[C@H]2c2cc3nc(N4CC[C@@H](C#N)C4)c(C)cn3n2)c1 [Compound 188],0.1 to 100,100
